Experimental data: US10738057B2, “Tertiary alcohols as PI3K-γ inhibitors” (Incyte Corporation, priority 2017, dated 2020)
Counter-ions that a name gives are not always drawn. Like-named read-outs stand apart in the source and are kept apart here.

Experiments:
[1] = molecular target: PI3Kγ (p110γ) Recombinant Human Protein (Homo sapiens (Human), UniProt P48736); assay: PI3K-γ scintillation proximity assay; format: biochemical; conditions: 20 μM PIP2, 2 μM ATP, 13 nM PI3Kγ, 120 min, room temperature
PI3Kγ (p110γ) Recombinant Human Protein, sequence (P48736 whole entry): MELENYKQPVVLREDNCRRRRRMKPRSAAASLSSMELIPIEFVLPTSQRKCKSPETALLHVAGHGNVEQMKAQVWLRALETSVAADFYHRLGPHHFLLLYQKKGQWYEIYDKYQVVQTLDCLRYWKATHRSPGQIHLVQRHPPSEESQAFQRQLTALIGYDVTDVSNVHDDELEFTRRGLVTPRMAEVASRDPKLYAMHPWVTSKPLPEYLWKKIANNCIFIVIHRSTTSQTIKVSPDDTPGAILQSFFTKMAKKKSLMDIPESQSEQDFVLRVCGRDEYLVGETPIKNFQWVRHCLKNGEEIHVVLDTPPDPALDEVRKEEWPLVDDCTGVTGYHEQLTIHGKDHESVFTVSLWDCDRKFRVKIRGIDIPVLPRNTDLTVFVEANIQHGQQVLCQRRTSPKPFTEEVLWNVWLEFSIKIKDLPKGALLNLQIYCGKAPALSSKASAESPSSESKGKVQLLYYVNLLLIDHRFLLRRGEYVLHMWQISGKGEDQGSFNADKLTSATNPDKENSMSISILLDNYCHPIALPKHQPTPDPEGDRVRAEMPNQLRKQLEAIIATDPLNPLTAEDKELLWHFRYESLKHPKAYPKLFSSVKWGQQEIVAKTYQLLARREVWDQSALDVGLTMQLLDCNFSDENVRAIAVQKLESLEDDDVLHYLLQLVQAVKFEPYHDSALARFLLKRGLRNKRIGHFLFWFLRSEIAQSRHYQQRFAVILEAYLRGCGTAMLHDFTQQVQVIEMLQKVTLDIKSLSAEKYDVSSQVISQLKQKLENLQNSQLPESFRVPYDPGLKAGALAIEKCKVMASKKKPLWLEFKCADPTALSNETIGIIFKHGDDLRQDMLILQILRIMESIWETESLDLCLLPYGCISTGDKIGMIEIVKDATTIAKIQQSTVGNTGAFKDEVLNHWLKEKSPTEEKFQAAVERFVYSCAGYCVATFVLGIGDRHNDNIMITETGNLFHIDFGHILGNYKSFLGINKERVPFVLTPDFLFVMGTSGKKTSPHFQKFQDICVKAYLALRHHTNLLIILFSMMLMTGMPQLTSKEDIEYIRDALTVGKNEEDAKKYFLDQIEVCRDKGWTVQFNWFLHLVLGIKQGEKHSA
In short: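 Radiometric SPA in 20 mM MOPS pH 6.7, 10 mM MgCl2, 5 mM DTT, 0.03% CHAPS, 2% DMSO. Stopped with EDTA and WGA SPA beads for scintillation counting. IC50 fitted from % solvent-control activity versus log concentration.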

[2] = system: Phosphorylated Ribosomal Protein S6 (RPS6) in THP-1 cells; assay: THP-1 RPS6 ELISA assay; format: cell-based, Human; conditions: serum starved, 2 h compound, 10 nM MCP-1 for 15 min, phospho-RPS6 ELISA, read-out: PI3Kγ_THP1_RPS6_ELISA IC50
Procedure: Example A. THP-1 RPS6 ELISA Assay
To measure the Phosphorylated Ribosomal Protein S6 (RPS6) in cell lysates, THP-1 cells (Human Acute Monocytic Leukemia) are purchased from ATCC (Manassas, Va.) and maintained in RPMI with 10% FBS (Gibco/Life Technologies, Carlsbad, Calif.). For the assay, THP-1 cells are serum starved overnight in RPMI, then plated in RPMI (2×10^5 cells/well in 90 μL) into 96-well flat-bottom tissue culture treated plates (Corning, Corning, N.Y.), in the presence or absence of a concentration range of test compounds. Covered plates are incubated for 2 hours at 37° C., 5% CO2 then treated with or without 10 nM MCP-1 (MYBioSource, San Diego, Calif.) for 15 minutes at 37° C., 5% CO2. Plates are centrifuged at 1600 RPM and supernatants are removed. Cells are lysed in Lysis Buffer (Cell Signaling, Danvers, Mass.) with Protease Inhibitor (Calbiochem/EMD, Germany), PMSF (Sigma, St Louis Mo.), HALTS (Thermo Fisher, Rockford, Ill.) for 30 min on wet ice. Cell lysates are frozen at −80° C. before testing. The lysates are tested in the Human/Mouse/Rat Phospho-RPS6 ELISA (R&D Systems, Inc. Minn, Minn.). The plate is measured using a microplate reader (SpectraMax M5—Molecular Devices, LLC Sunnyvale, Calif.) set to 450 nm with a wavelength correction of 540. IC50 determination is performed by fitting the curve of inhibitor percent inhibition versus the log of the inhibitor concentration using the GraphPad Prism 5.0 software.

[3] = molecular target: PI3Kδ (p110δ/p85α) Recombinant Human Protein (Homo sapiens (Human), UniProt O00329); assay: PI3Kδ scintillation proximity assay; format: biochemical; conditions: 20 μM PIP2, 2 μM ATP, 3.4 nM PI3Kδ, 120 min, room temperature
PI3Kδ (p110δ/p85α) Recombinant Human Protein, sequence (O00329 whole entry): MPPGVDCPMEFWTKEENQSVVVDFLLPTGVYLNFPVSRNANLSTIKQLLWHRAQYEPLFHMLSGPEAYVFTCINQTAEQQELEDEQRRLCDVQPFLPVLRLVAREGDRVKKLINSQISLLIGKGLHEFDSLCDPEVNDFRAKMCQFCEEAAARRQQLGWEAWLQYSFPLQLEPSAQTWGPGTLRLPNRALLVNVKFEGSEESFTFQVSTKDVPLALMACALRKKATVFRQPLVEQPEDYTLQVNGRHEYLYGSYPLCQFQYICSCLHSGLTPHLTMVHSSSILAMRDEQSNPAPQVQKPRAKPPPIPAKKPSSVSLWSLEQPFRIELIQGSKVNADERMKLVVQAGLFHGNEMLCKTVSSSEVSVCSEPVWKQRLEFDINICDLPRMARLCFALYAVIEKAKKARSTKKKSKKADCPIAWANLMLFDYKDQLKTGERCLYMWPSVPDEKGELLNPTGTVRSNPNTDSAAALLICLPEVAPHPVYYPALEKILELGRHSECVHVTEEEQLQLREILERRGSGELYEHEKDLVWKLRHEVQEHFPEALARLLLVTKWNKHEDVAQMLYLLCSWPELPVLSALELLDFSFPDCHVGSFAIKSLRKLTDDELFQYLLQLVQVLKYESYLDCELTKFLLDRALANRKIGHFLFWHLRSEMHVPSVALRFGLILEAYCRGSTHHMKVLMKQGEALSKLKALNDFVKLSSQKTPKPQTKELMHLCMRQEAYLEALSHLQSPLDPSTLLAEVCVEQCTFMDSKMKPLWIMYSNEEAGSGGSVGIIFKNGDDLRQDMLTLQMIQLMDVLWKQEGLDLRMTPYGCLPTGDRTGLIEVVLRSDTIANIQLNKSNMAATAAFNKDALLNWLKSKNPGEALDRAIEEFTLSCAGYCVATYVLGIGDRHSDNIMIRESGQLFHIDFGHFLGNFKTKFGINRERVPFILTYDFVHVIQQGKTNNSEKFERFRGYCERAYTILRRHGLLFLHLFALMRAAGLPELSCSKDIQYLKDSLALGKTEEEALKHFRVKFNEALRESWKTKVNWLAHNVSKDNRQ
PI3Kδ (p110δ/p85α) Recombinant Human Protein, sequence (P27986 whole entry partner): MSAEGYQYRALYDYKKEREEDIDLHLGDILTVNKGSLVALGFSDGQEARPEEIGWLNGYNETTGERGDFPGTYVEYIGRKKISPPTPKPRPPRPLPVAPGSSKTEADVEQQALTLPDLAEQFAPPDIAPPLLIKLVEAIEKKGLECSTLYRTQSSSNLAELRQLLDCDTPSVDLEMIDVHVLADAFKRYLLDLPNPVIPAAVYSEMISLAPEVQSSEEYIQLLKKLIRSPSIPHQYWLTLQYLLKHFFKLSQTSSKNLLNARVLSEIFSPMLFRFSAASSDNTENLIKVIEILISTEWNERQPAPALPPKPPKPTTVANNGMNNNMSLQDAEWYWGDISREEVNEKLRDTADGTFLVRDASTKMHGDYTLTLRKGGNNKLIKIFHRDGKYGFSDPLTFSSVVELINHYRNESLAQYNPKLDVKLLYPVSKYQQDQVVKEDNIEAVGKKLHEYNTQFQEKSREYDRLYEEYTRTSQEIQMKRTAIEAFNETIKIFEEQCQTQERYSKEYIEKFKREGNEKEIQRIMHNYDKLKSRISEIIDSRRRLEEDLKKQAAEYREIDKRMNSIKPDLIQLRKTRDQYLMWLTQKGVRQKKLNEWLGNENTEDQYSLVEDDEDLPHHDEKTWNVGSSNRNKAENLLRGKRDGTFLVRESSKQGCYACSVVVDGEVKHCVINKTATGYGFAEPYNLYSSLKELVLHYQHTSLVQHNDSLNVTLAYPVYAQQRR
In short: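 Recombinant human p110δ/p85α was run at room temperature in 20 mM MOPS pH 6.7, 10 mM MgCl2, 5 mM DTT, 0.03% CHAPS, 2% DMSO. Substrates were 20 µM PIP2 and 2 µM ATP with [γ-33P]ATP. Product was captured overnight on WGA SPA beads and counted by scintillation; IC50 fitted from percent of solvent control versus log concentration.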

[4] = Homo sapiens, THP-1, THP-1 cells

SMILES | IC50 [1] | IC50 ([2]; THP-1 cells) | IC50 ([3]; read-out: PI3Kδ IC50) | IC50 [2, 4] | IC50 ([3]; PI3Kδ IC50 (nM))
Cc1ccc(C(O)(CO)C(F)(F)F)cc1-c1cnc2c(N)nc(C(F)(F)F)cn12 (single isomer, unassigned) [Example 73, 2-(3-(8-Amino-6-(trifluoromethyl)imidazo[1,2-a]pyrazin-3-yl)-4-methylphenyl)-3,3,3-trifluoropropane-1,2-diol] | < 0.1 µM | 0.5 to 1 µM | 100 to 500 nM | – | –
CCOC(=O)C1CC1c1cn2c(-c3cc(C(C)(O)C(F)F)ccc3C)cnc2c(N)n1 (single isomer, unassigned) [Example 75, Ethyl 2-(8-amino-3-(5-(1,1-difluoro-2-hydroxypropan-2-yl)-2-methylphenyl)imidazo[1,2-a]pyrazin-6-yl)cyclopropane-1-carboxylate trifluoroacetate salt] | < 0.1 µM | – | 100 to 500 nM | 0.1 to 0.5 µM | –
Cc1ccc(C(C)(O)C(F)F)cc1-c1cnc2c(N)nc(C3CC3CO)cn12 (single isomer, unassigned) [Example 79, 2-(3-(8-Amino-6-(2-(hydroxymethyl)cyclopropyl)imidazo[1,2-a]pyrazin-3-yl)-4-methylphenyl)-1,1-difluoropropan-2-ol] | < 0.1 µM | – | 500 to 2000 nM | 0.1 to 0.5 µM | –
Cc1ccc(C(C)(O)C(F)F)cc1-c1cnc2c(N)nc(-c3ccc(C(C)O)nc3)cn12 (single isomer, unassigned) [Example 136, 2-(3-(8-Amino-6-(6-(1-hydroxyethyl)pyridin-3-yl)imidazo[1,2-a]pyrazin-3-yl)-4-methylphenyl)-1,1-difluoropropan-2-ol] | < 0.1 µM | – | 100 to 500 nM | < 0.1 µM | –
[2H]C([2H])([2H])c1ccc(C(O)(C(C)O)C(F)(F)F)cc1-c1cnc2c(N)nc(C(F)(F)F)cn12 (single isomer, unassigned) [Example 233, 2-(3-(8-Amino-6-(trifluoromethyl)imidazo[1,2-a]pyrazin-3-yl)-4-(methyl-d3)phenyl)-1,1,1-trifluorobutane-2,3-diol trifluoroacetate salt] | < 0.1 µM | – | 100 to 500 nM | 0.1 to 0.5 µM | –
[2H]C([2H])([2H])c1ccc(C(C)(O)C(F)(F)F)cc1-c1cnc2c(N)nc(C(C)(C)O)cn12 (single isomer, unassigned) [Example 253, 2-(3-(8-Amino-6-(2-hydroxypropan-2-yl)imidazo[1,2-a]pyrazin-3-yl)-4-(methyl-d3)phenyl)-1,1,1-trifluoropropan-2-ol trifluoroacetate salt] | < 0.1 µM | – | 100 to 500 nM | 0.1 to 0.5 µM | –
Cc1ccc(C(C)(O)C(F)(F)F)cc1-c1cnc2c(N)nc(C(F)(F)F)nn12 (stereo not drawn) [Example 1, 2-(3-(4-Amino-2-(trifluoromethyl)imidazo[2,1-f][1,2,4]triazin-7-yl)-4-methylphenyl)-1,1,1-trifluoropropan-2-ol] | < 0.1 µM | – | 100 to 500 nM | 0.1 to 0.5 µM | –
Cc1nc(N)c2ncc(-c3cc(C(C)(O)C(F)(F)F)ccc3C)n2n1 (stereo not drawn) [Example 2, 2-(3-(4-Amino-2-methylimidazo[2,1-f][1,2,4]triazin-7-yl)-4-methylphenyl)-1,1,1-trifluoropropan-2-ol] | < 0.1 µM | – | 500 to 2000 nM | 0.5 to 1 µM | –
Cc1ccc(C(O)(c2nnnn2C)C(F)(F)F)cc1-c1cnc2c(N)nc(C(F)(F)F)cn12 (stereo not drawn) [Example 13, 1-(3-(8-Amino-6-(trifluoromethyl)imidazo[1,2-a]pyrazin-3-yl)-4-methylphenyl)-2,2,2-trifluoro-1-(1-methyl-1H-tetrazol-5-yl)ethan-1-ol trifluoroacetate] | < 0.1 µM | – | 100 to 500 nM | 0.1 to 0.5 µM | –
CNCCC(O)(c1ccc(C)c(-c2cnc3c(N)nc(C(F)(F)F)cn23)c1)C(F)(F)F (stereo not drawn) [Example 14, 2-(3-(8-Amino-6-(trifluoromethyl)imidazo[1,2-a]pyrazin-3-yl)-4-methylphenyl)-1,1,1-trifluoro-4-(methylamino)butan-2-ol bis(2,2,2-trifluoroacetate)] | < 0.1 µM | – | – | < 0.1 µM | 100 to 500 nM
Cc1ccc(C(O)(CCO)C(F)(F)F)cc1-c1cnc2c(N)nc(C(F)(F)F)cn12 (stereo not drawn) [Example 18, 3-(3-(8-Amino-6-(trifluoromethyl)imidazo[1,2-a]pyrazin-3-yl)-4-methylphenyl)-4,4,4-trifluorobutane-1,3-diol] | < 0.1 µM | – | 100 to 500 nM | 0.1 to 0.5 µM | –
Cc1ccc(C(O)(C2CC2)C(F)(F)F)cc1-c1cnc2c(N)nc(C(F)(F)F)cn12 (stereo not drawn) [Example 19, 1-(3-(8-Amino-6-(trifluoromethyl)imidazo[1,2-a]pyrazin-3-yl)-4-methylphenyl)-1-cyclopropyl-2,2,2-trifluoroethan-1-ol] | < 0.1 µM | – | 100 to 500 nM | > 1 µM | –

Continued, in another order:

IC50 [1] | IC50 ([2]; THP-1 cells) | IC50 ([3]; read-out: PI3Kδ IC50) | IC50 [2, 4] | SMILES | IC50 ([3]; PI3Kδ IC50 (nM))
< 0.1 µM | – | 500 to 2000 nM | > 1 µM | Cc1ccc(C(C)(O)C(F)(F)F)cc1-c1cnc2c(N)nc(C(=O)N[C@@H](B(O)O)C3CCC3)cn12 (single isomer, unassigned) [Example 117] | –
< 0.1 µM | – | < 100 nM | < 0.1 µM | Cc1ccc(C(C)(O)C(F)(F)F)cc1-c1cnc2c(N)nc(C3CC(CO)C3)cn12 (single isomer, unassigned) [Example 207, 2-(3-(8-amino-6-(3-(hydroxymethyl)cyclobutyl)imidazo[1,2-a]pyrazin-3-yl)-4-methylphenyl)-1,1,1-trifluoropropan-2-ol trifluoroacetate] | –
< 0.1 µM | < 0.1 µM | < 100 nM | – | Cc1ccc(C(C)(O)C(F)(F)F)cc1-c1cnc2c(N)nc(C3CC(CO)C3)cn12 (single isomer, unassigned) [Example 208, 2-(3-(8-amino-6-(3-(hydroxymethyl)cyclobutyl)imidazo[1,2-a]pyrazin-3-yl)-4-methylphenyl)-1,1,1-trifluoropropan-2-ol trifluoroacetate] | –
< 0.1 µM | – | 100 to 500 nM | 0.1 to 0.5 µM | Cc1ccc(C(C)(O)C(F)(F)F)cc1-c1cnc2c(N)nc(C(F)(F)F)cn12 (stereo not drawn) [Example 4, 2-(3-(8-Amino-6-(trifluoromethyl)imidazo[1,2-a]pyrazin-3-yl)-4-methylphenyl)-1,1,1-trifluoropropan-2-ol] | –
< 0.1 µM | – | 500 to 2000 nM | 0.5 to 1 µM | COC(=O)c1cn2c(-c3cc(C(C)(O)C(F)(F)F)ccc3C)cnc2c(N)n1 (stereo not drawn) [Example 8, Methyl 8-amino-3-(2-methyl-5-(1,1,1-trifluoro-2-hydroxypropan-2-yl)phenyl)imidazo[1,2-a]pyrazine-6-carboxylate] | –
< 0.1 µM | – | 100 to 500 nM | 0.1 to 0.5 µM | CNC(=O)c1cn2c(-c3cc(C(C)(O)C(F)(F)F)ccc3C)cnc2c(N)n1 (stereo not drawn) [Example 9, 8-Amino-N-methyl-3-(2-methyl-5-(1,1,1-trifluoro-2-hydroxypropan-2-yl)phenyl)imidazo[1,2-a]pyrazine-6-carboxamide] | –
< 0.1 µM | – | < 100 nM | 0.1 to 0.5 µM | Cc1ccc(C(C)(O)C(F)(F)F)cc1-c1cnc2c(N)nc(-c3ccnc(CO)c3)cn12 (stereo not drawn) [Example 10, 2-(3-(8-Amino-6-(2-(hydroxymethyl)pyridin-4-yl)imidazo[1,2-a]pyrazin-3-yl)-4-methylphenyl)-1,1,1-trifluoropropan-2-ol] | –
< 0.1 µM | – | < 100 nM | 0.1 to 0.5 µM | Cc1ccc(C(C)(O)C(F)(F)F)cc1-c1cnc2c(N)nc(-c3cnc(C4CC4)s3)cn12 (stereo not drawn) [Example 20, 2-(3-(8-Amino-6-(2-cyclopropylthiazol-5-yl)imidazo[1,2-a]pyrazin-3-yl)-4-methylphenyl)-1,1,1-trifluoropropan-2-ol, TFA] | –
< 0.1 µM | – | < 100 nM | 0.1 to 0.5 µM | COc1cnc(-c2cn3c(-c4cc(C(C)(O)C(F)(F)F)ccc4C)cnc3c(N)n2)s1 (stereo not drawn) [Example 21, 2-(3-(8-Amino-6-(5-methoxythiazol-2-yl)imidazo[1,2-a]pyrazin-3-yl)-4-methylphenyl)-1,1,1-trifluoropropan-2-ol, TFA] | –
